Experiment [1] deals with T1, NMDA receptor (Rattus norvegicus, UniProt P35439+Q00960).
T1 construct: other: test compound in the absence of spermine; concentration at 50% of maximum stimulation; % Sti; spermine = 100; other: with and without spermine; absence of spermine; % STI; absence
As to the kind of experiment: biochemical. Format: binding.

Experiment [2] concerns NMDA receptor. The format is binding, rat.
Setting [3] is: read-out: IC50, inhibition of spermine-enhanced [3H]MK-801 binding.

Like-named read-outs stand apart in the source and are kept apart here. Square brackets hold non-standard residues; d marks the D form. Primed or numbered codes have the meaning given here. Ends that are not written are not given here. Peptide text beside a SMILES is read from it. Gla′ = gamma-carboxyglutamate (g in names)

T1 sequence (Q00960 27-1482, other chains not shown): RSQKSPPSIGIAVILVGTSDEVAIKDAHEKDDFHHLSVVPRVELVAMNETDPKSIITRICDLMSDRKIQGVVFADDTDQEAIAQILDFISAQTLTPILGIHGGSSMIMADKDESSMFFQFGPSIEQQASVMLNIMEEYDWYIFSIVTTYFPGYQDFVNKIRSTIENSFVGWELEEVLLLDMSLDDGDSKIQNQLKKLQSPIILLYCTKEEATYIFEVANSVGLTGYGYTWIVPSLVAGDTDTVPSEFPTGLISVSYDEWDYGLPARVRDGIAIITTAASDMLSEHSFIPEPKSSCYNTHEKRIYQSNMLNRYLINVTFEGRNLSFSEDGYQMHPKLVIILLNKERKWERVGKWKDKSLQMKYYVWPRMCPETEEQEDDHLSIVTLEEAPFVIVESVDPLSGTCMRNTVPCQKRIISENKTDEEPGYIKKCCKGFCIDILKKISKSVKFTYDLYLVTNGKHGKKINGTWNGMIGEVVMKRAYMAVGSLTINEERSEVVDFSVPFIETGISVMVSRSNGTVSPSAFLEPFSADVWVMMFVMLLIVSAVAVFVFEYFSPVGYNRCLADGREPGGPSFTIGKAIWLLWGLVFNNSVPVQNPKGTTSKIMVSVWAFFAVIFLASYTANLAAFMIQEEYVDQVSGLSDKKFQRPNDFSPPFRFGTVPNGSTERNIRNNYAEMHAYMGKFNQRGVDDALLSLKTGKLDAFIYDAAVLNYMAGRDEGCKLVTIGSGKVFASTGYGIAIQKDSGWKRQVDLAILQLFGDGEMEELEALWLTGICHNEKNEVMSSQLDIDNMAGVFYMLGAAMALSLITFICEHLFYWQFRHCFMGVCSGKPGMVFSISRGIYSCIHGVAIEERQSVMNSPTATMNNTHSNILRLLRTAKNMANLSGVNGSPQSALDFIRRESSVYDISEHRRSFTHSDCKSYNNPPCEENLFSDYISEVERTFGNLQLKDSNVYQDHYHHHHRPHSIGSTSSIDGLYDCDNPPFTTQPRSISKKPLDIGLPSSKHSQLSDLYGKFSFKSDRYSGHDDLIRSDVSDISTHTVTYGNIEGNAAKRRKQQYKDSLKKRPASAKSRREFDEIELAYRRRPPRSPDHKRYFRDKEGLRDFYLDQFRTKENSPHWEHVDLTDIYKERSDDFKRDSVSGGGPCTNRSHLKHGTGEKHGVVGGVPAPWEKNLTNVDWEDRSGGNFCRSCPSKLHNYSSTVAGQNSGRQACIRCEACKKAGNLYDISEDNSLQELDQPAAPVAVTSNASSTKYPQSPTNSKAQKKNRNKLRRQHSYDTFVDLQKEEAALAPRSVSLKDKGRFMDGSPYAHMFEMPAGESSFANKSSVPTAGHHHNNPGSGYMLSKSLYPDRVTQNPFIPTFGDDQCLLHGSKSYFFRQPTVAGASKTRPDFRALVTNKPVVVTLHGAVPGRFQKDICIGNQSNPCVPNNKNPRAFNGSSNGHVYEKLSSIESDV

Turning to `CC[C@H](C)[C@H](NC(=O)[C@H](CCC(N)=O)NC(=O)[C@H](CO)NC(=O)[C@@H](NC(=O)[C@H](CC(N)=O)NC(=O)[C@H](CO)NC(=O)[C@H](CCC(N)=O)NC(=O)[C@H](CC(C)C)NC(=O)[C@H](CC(C(=O)O)C(=O)O)NC(=O)[C@H](CC(C(=O)O)C(=O)O)NC(=O)[C@H](CCC(=O)O)NC(=O)CN)C(C)C)C(=O)N[C@@H](CCCNC(=N)N)C(=O)N[C@@H](C)C(=O)N[C@@H](CCCCN)C(=O)N[C@@H](CO)C(=O)N[C@@H](CC(N)=O)C(N)=O` [310 helix ConG] (HELM PEPTIDE1{G.E.[O=C(O)C(C[C@H](N[*:1])C(=O)[*:2])C(=O)O].[O=C(O)C(C[C@H](N[*:1])C(=O)[*:2])C(=O)O].L.Q.S.N.V.S.Q.I.R.A.K.S.N.[am]}$$$$V2.0), the Emax at NMDA receptor [1] (read-out: % Sti) came to 0%. In addition, the “% Inh” value in the experiment on NMDA receptor [2] is listed as 25%. The IC50 on NMDA receptor [2] (read-out: Spermine IC) came to 20 µM.

On to `CC[C@H](C)[C@H](NC(=O)[C@H](CC(C)C)NC(=O)[C@H](C)NC(=O)[C@H](CCC(N)=O)NC(=O)[C@H](CC(N)=O)NC(=O)[C@H](CC(C(=O)O)C(=O)O)NC(=O)[C@H](CCC(N)=O)NC(=O)[C@H](CC(C)C)NC(=O)[C@H](CC(C(=O)O)C(=O)O)NC(=O)[C@H](CC(C(=O)O)C(=O)O)NC(=O)[C@H](CCC(=O)O)NC(=O)CN)C(=O)N[C@@H](CCCNC(=N)N)C(=O)N[C@@H](CC(C(=O)O)C(=O)O)C(=O)N[C@@H](CCCCN)C(=O)N[C@@H](CO)C(=O)N[C@@H](CC(N)=O)C(N)=O` [Ala10-Con-G, GEggLQgNQALIRgKSN], for which, on NMDA receptor [1] (read-out: % Sti), the Emax was 0%. Moreover, the “% Inh” value in the experiment with NMDA receptor [2] is 100%. Also, on NMDA receptor [2] (read-out: Spermine IC), the IC50 came to 1.1 ± 0.3 µM.

Take `CC[C@H](C)[C@H](NC(=O)[C@H](CC(C)C)NC(=O)[C@H](CC(C(=O)O)C(=O)O)NC(=O)[C@H](CCC(N)=O)NC(=O)[C@H](CC(N)=O)NC(=O)[C@H](CC(C(=O)O)C(=O)O)NC(=O)[C@H](CCC(N)=O)NC(=O)[C@H](CC(C)C)NC(=O)[C@H](CC(C(=O)O)C(=O)O)NC(=O)[C@H](CC(C(=O)O)C(=O)O)NC(=O)[C@H](CCC(=O)O)NC(=O)CNC(=O)[C@@H](N)CC(=O)N[C@@H]1O[C@H](CO)[C@@H](O)[C@H](O)[C@H]1NC(C)=O)C(=O)N[C@@H](CCCNC(=N)N)C(=O)N[C@@H](CC(C(=O)O)C(=O)O)C(=O)N[C@@H](CCCCN)C(=O)N[C@@H](CO)C(=O)N[C@@H](CC(N)=O)C(N)=O` [Asn(GlcNAc)^o-Con-G, N(GlcOc)-GEggLQgNQgLIRgKSN]: at NMDA receptor [1] (forebrain membranes), the “% Sti” value amounted to 0%. Also, the “% Inh” value in the experiment on NMDA receptor [2] was determined as 38%. Besides, the IC50 on NMDA receptor [2] (read-out: Spermine IC) stood at 8.8 µM.

Regarding `CC[C@H](C)[C@H](NC(=O)[C@H](CC(C)C)NC(=O)[C@@H](CCC(=O)O)NC(=O)[C@H](CCC(N)=O)NC(=O)[C@H](CC(N)=O)NC(=O)[C@@H](CCC(=O)O)NC(=O)[C@H](CCC(N)=O)NC(=O)[C@H](CC(C)C)NC(=O)[C@@H](CCC(=O)O)NC(=O)[C@@H](CCC(=O)O)NC(=O)[C@@H](CCC(=O)O)NC(=O)CN)C(=O)N[C@@H](CCCNC(=N)N)C(=O)N[C@H](CCC(=O)O)C(=O)N[C@@H](CCCCN)C(=O)N[C@@H](CO)C(=O)N[C@@H](CC(N)=O)C(N)=O` [D-Glu3,4,7,10,14-Con-G, GdEdEdELQdENQdELIRdEKSN], at NMDA receptor [1], the “stimulation of [3H]MK-801 binding in the absence of spermine” value is listed as “stimulated”. Also, the Emax at NMDA receptor [1] (read-out: % Sti) was 30%. Moreover, in the experiment on NMDA receptor [2], the “% Inh” value was found to be 0% and the “inhibition of spermine-induced [3H]MK-801 binding” value was “no inhibition”.

With `CC[C@H](C)[C@H](NC(=O)[C@H](CC(C)C)NC(=O)[C@H](CCC(=O)O)NC(=O)[C@H](CCC(N)=O)NC(=O)[C@H](CC(N)=O)NC(=O)[C@H](CCC(=O)O)NC(=O)[C@H](CCC(N)=O)NC(=O)[C@H](CC(C)C)NC(=O)[C@H](CCC(=O)O)NC(=O)[C@H](CCC(=O)O)NC(=O)[C@H](CCC(=O)O)NC(=O)CN)C(=O)N[C@@H](CCCNC(=N)N)C(=O)N[C@@H](CCC(=O)O)C(=O)N[C@@H](CCCCN)C(=O)N[C@@H](CO)C(=O)N[C@@H](CC(N)=O)C(N)=O` [Glu3,4,7,10,14-Con-G], the Emax on NMDA receptor [1] (read-out: % STI) and on NMDA receptor [1] (read-out: % Sti) was 79% throughout. Besides, the “% INH” value in the experiment on NMDA receptor [2] amounted to 22%. Moreover, the “% Inh” value in the experiment on NMDA receptor [2] amounted to 22%. The IC50 on NMDA receptor [2] (read-out: IC50) and at NMDA receptor [2] (read-out: Spermine IC) was 8.5 µM in each case.

For `CC[C@H](C)[C@H](N)C(=O)N[C@@H](CCCNC(=N)N)C(=O)N[C@@H](CCC(=O)O)C(=O)N[C@@H](CCCCN)C(=O)N[C@@H](CO)C(=O)N[C@@H](CC(N)=O)C(N)=O` [Glul4-Con-G(12-17), IREKSN], the “stimulation of [3H]MK-801 binding in the absence of spermine” value on NMDA receptor [1] is “stimulated”. Besides, at NMDA receptor [1] (read-out: % Sti), the Emax stood at 30%. Also, in the experiment on NMDA receptor [2], the “% Inh” value was determined as 0% and the “inhibition of spermine-induced [3H]MK-801 binding” value was “no inhibition”.

On to `CC[C@H](C)[C@H](NC(=O)[C@H](CC(C)C)NC(=O)[C@H](CO)NC(=O)[C@H](CCC(N)=O)NC(=O)[C@H](CC(N)=O)NC(=O)[C@H](CC(C(=O)O)C(=O)O)NC(=O)[C@H](CCC(N)=O)NC(=O)[C@H](CC(C)C)NC(=O)[C@H](CC(C(=O)O)C(=O)O)NC(=O)[C@H](CC(C(=O)O)C(=O)O)NC(=O)[C@H](CCC(=O)O)NC(=O)CN)C(=O)N[C@@H](CCCNC(=N)N)C(=O)N[C@@H](CC(C(=O)O)C(=O)O)C(=O)N[C@@H](CCCCN)C(=O)N[C@@H](CO)C(=O)N[C@@H](CC(N)=O)C(N)=O` [Ser10-Con-G, GEggLQgNQSLIRgKSN], for which, at NMDA receptor [1] (read-out: % Sti), the Emax worked out at 0%. For the same compound, the “% Inh” value with NMDA receptor [2] is recorded as 100%. Moreover, the IC50 at NMDA receptor [2] (read-out: Spermine IC) was found to be 1.8 ± 0.2 µM.

`CC[C@H](C)[C@H](NC(=O)[C@H](CC(C)C)NC(=O)[C@H](CC(C(=O)O)C(=O)O)NC(=O)[C@H](CCC(N)=O)NC(=O)[C@H](CC(N)=O)NC(=O)[C@H](CC(C(=O)O)C(=O)O)NC(=O)[C@H](CCC(N)=O)NC(=O)[C@H](CC(C)C)NC(=O)[C@H](CC(C(=O)O)C(=O)O)NC(=O)[C@H](COP(=O)(O)O)NC(=O)[C@H](CCC(=O)O)NC(=O)CN)C(=O)N[C@@H](CCCNC(=N)N)C(=O)N[C@@H](CC(C(=O)O)C(=O)O)C(=O)N[C@@H](CCCCN)C(=O)N[C@@H](CO)C(=O)N[C@@H](CC(N)=O)C(N)=O` [Ser(p)3-Con-G, GES(p)gLQgNQgLJRgKSN]: on NMDA receptor [1] (forebrain membranes), the “% STI” value worked out at 68 ± 8.4% and the “% Sti” value turned out to be 68 ± 8.4%. Also, in the experiment on NMDA receptor [2], the “% INH” value is 34 ± 2.3% and the “% Inh” value worked out at 34 ± 2.3%.

As to `CC[C@H](C)[C@H](NC(=O)[C@H](CC(C)C)NC(=O)[C@H](CC(C(=O)O)C(=O)O)NC(=O)[C@H](CCC(N)=O)NC(=O)[C@H](CC(N)=O)NC(=O)[C@H](COP(=O)(O)O)NC(=O)[C@H](CCC(N)=O)NC(=O)[C@H](CC(C)C)NC(=O)[C@H](CC(C(=O)O)C(=O)O)NC(=O)[C@H](CC(C(=O)O)C(=O)O)NC(=O)[C@H](CCC(=O)O)NC(=O)CN)C(=O)N[C@@H](CCCNC(=N)N)C(=O)N[C@@H](CC(C(=O)O)C(=O)O)C(=O)N[C@@H](CCCCN)C(=O)N[C@@H](CO)C(=O)N[C@@H](CC(N)=O)C(N)=O` [Ser(p)7-Con-G, GEggLQS(p)NQgLIRgKSN], the “% Sti” value on NMDA receptor [1] (forebrain membranes) is on record as 0%. In addition, in the experiment on NMDA receptor [2], the “% Inh” value was 50±3.8% and the “inhibition of [3H]MK-801 binding produced by maximally effective spermine” value worked out at 50%. For the same compound, the IC50 on NMDA receptor [2] (setting [3]) came out at 1.04 ± 0.3 µM.

On to `CC[C@H](C)[C@H](NC(=O)[C@H](CC(C)C)NC(=O)[C@H](COP(=O)(O)O)NC(=O)[C@H](CCC(N)=O)NC(=O)[C@H](CC(N)=O)NC(=O)[C@H](CC(C(=O)O)C(=O)O)NC(=O)[C@H](CCC(N)=O)NC(=O)[C@H](CC(C)C)NC(=O)[C@H](CC(C(=O)O)C(=O)O)NC(=O)[C@H](CC(C(=O)O)C(=O)O)NC(=O)[C@H](CCC(=O)O)NC(=O)CN)C(=O)N[C@@H](CCCNC(=N)N)C(=O)N[C@@H](CC(C(=O)O)C(=O)O)C(=O)N[C@@H](CCCCN)C(=O)N[C@@H](CO)C(=O)N[C@@H](CC(N)=O)C(N)=O` [Ser(p)10-Con-G, GEggLQgNQS(p)LIRgKSN], for which the “% Sti” value on NMDA receptor [1] (forebrain membranes) was found to be 0%. In addition, in the experiment on NMDA receptor [2], the “% Inh” value is 100%. Moreover, the IC50 at NMDA receptor [2] (setting [3]) was 0.56 ± 0.2 µM.

With “GEggL-AA-gKSN (GEXXLAAXKSN; gamma-carboxyglutamate residues) [ConG(1-5)AA(14-17)]”, the “% Sti” value with NMDA receptor [1] amounted to 0%.

For the compound “GEggL-AAA-gKSN (GEXXLAAAXKSN; gamma-carboxyglutamate residues) [ConG(1-5)AAAA(14-17)]”, in the experiment with NMDA receptor [1], the “% Sti” value is 0%.

Regarding GEggL-BB-gKSN [ConG(1-5)BB(14-17)], the “% Sti” value at NMDA receptor [1] amounted to 0%.

Consider “GEggL-GG-gKSN (GEXXLGGXKSN; gamma-carboxyglutamate residues) [ConG(1-5)GG(14-17)]”, for which, in the experiment with NMDA receptor [1], the “% Sti” value is 0%.

Take “GEggL-GGGG-gKSN (GEXXLGGGGXKSN; gamma-carboxyglutamate residues) [ConG(1-5)GGGG(14-17)]”: the “% Sti” value with NMDA receptor [1] worked out at 0%.

On to “GEggL-cyclic (GEXXL; cyclic; gamma-carboxyglutamate residues) [Cyclic ConG(1-5)]”, for which the “activity in [3H]MK-801 binding (spanning cell of Table II)” value (“activity in [3H]MK-801 binding” below) in the experiment with NMDA receptor [1] was “inactive”.

For “GEggLQ-AAAAA-gKSN (GE[Gla′][Gla′]LQAAAAA[Gla′]KSN) [ConG(1-6)AS(14-17)]”, the “% Sti” value with NMDA receptor [1] is 0%.

For the compound “GEggLQ-AAAAAAA-gKSN (GE[Gla′][Gla′]LQAAAAAAA[Gla′]KSN) [ConG(1-6)A7(14-17)]”, the “% Sti” value with NMDA receptor [1] amounted to 0%.

On to IAEASN [Ala13,15, Glul4-Con-G(12-17)], for which, in the experiment with NMDA receptor [1], the “activity in [3H]MK-801 binding” value was “inactive”.

IAEKSN [Ala13, Glul4-Con-G(12-17)]: the “activity in [3H]MK-801 binding” value in the experiment with NMDA receptor [1] is “inactive”.

Turning to IREASN [Glu 14, Alal5-Con-G(12-17)], in the experiment with NMDA receptor [1], the “activity in [3H]MK-801 binding” value is “inactive”.

As for RSgNK (RS[Gla′]NK) [scrambled Con-G], the “activity in [3H]MK-801 binding” value in the experiment with NMDA receptor [1] is “inactive”.

As to RgKSN (R[Gla′]KSN) [Con-G(13-17)], the “activity in [3H]MK-801 binding” value with NMDA receptor [1] is “inactive”.

(Values after patent US6511963B1 (priority 1992, dated 2003).)
